The values below are quoted from earlier work in patent publication US20110208161A1, “INT[…] […] TO THE CENTRAL NERVOUS SYSTEM” (priority 2009, published 2011).

In the series the target is T1, μ receptor (Oryctolagus cuniculus, UniProt G1TAQ8).
T1 construct: host or cells: brain tissue at the fourth ventricle, in vivo
The conditions noted are these: infusion into the fourth ventricle.

Where a SMILES comes first, the peptide text is derived from it.

T1 sequence (G1TAQ8 1-401): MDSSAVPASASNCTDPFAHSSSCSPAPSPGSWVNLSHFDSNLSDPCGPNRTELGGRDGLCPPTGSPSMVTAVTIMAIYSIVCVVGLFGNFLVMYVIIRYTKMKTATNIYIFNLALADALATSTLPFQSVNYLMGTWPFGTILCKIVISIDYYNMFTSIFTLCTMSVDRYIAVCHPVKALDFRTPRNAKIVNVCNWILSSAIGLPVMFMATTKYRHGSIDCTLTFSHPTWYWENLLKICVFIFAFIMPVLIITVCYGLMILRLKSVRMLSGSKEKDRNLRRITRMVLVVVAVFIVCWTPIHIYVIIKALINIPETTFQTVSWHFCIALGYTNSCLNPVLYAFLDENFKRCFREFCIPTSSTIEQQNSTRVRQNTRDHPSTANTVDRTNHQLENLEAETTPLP

On to `NC(=O)[C@@H]1CCCN1C(=O)[C@H](Cc1ccccc1)NC(=O)[C@@H]1CCCN1C(=O)[C@@H](N)Cc1ccc(O)cc1` [morphiceptin] (H-YPFP-NH2), for which the “effect on spinal cord nociceptive transmission” value is “attenuate spinal cord nociceptive transmission”.
